Patent US12077534B2, “Aza-heterobicyclic inhibitors of MAT2A and methods of use for treating cancer” (Les Laboratoires Servier SAS, priority 2018, dated 2024)
pIC50: −log10 of the molar value.

Legend:
MAT2A homodimer = biological target: T1, MAT2A homodimer (Homo sapiens, UniProt P31153); assay: MAT2A biochemical assay (phosphate release, PiColorLock Gold); conditions: recombinant MAT2A homodimer, 60 min pre-incubation, 25° C.; read-out: Enzyme Inhibition
T1 construct: inferred from Ni sepharose purification and imidazole elution; made in house; host or cells: SF9 insect cells, recombinant baculovirus (Bac to Bac, pFASTBAC1)
T1 sequence (P31153 whole entry): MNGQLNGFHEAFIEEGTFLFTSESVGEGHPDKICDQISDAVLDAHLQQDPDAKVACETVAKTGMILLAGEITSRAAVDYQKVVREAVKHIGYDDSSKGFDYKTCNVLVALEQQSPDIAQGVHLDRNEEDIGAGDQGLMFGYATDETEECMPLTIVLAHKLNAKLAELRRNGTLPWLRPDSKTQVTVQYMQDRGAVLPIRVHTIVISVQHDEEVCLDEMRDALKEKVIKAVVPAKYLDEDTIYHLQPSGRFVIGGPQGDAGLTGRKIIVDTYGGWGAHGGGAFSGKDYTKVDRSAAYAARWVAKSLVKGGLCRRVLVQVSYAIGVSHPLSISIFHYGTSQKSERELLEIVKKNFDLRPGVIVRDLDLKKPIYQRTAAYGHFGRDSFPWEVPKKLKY
In short: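 Baculovirus/Sf9-expressed, Ni-purified MAT2A homodimer (4 µg/mL in pH 8.0 Tris/KCl/MgCl2 buffer) preincubated 60 min at 25 °C with compound (2% DMSO final). Substrate mix of 500 µM ATP and 400 µM L-methionine added; 60 min at 25 °C; released phosphate quantified colorimetrically against a phosphate standard curve.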

HCT116 MTAP+/+ = assay: Inhibition of cellular proliferation (Cell Titer Glo), HCT116 MTAP+/+; assay type: cell-based; conditions: Homo sapiens, HCT-116, 96 h, 4 days, read-out: 4 Day Relative Growth Inhibition (MTAP +/+)
In short: (§1)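 Isogenic HCT116 MTAP+/+ and MTAP−/− cells treated 24 h after plating with 10-point 3-fold dilutions, then grown 4 days at 37 °C/5% CO2. ATP content read by Cell Titer Glo luminescence, blank-subtracted and normalized to 0.2% DMSO control, plotted as percent proliferation change versus log molar concentration.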

[1] = tested on: MAT2A activity (SAM) in HCT116 cells with deleted MTAP gene; assay: Cellular assay of target engagement (SAM) by LC-MS/MS; assay type: cell-based; conditions: Homo sapiens, HCT-116; HCT116 MTAP −/−, 72 hrs; read-out: Cell 72 h SAM Inhibition (MTAP −/−)
In short: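 HCT116 MTAP-deleted cells treated with 10-point 3-fold DMSO serial dilutions of compound for 72 hrs at 37° C. Cells lysed in cold 80% methanol/acetic acid extraction buffer with d3-SAM internal standard; SAM quantified by LC-MS/MS (MRM m/z 399.2→250.1).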

HCT116 MTAP−/− = assay: Inhibition of cellular proliferation (Cell Titer Glo), HCT116 MTAP-/-; assay type: cell-based; conditions: Homo sapiens, HCT-116, 96 h, 4 days, read-out: 4 Day Relative Growth Inhibition (MTAP −/−)
In short: as §1

Row | Compound | pIC50 (MAT2A homodimer) | pIC50 (HCT116 MTAP+/+) | pIC50 [1] | pIC50 (HCT116 MTAP−/−)
1 | Cc1ccc(-c2c(=O)n(-c3ccc4nn(C)cc4c3)nc3ccc(NCC(F)(F)F)nc23)cn1 [Example 301, 2-(2-methyl-2H-indazol-5-yl)-4-(6-methylpyridin-3-yl)-6-((2,2,2-trifluoroethyl)amino)pyrido[3,2-c]pyridazin-3(2H)-one] | > 7.00 | ≤ 6.00 | > 7.00 | > 7.00
2 | Cc1ccc(-c2c(=O)n(-c3ccc4nn(C)cc4c3)nc3ccc(OCC4CC4)nc23)cn1 [Example 302] | > 7.00 | ≤ 6.00 | > 7.00 | > 7.00
3 | Cn1cc2cc(-n3nc4ccc(OCC5CC5)nc4c(-c4ccc(C5CC5)nc4)c3=O)ccc2n1 [Example 303] | > 7.00 | ≤ 6.00 | > 7.00 | > 7.00
4 | O=c1c(-c2ccc(C3CC3)cc2)c2nc(OCC(F)F)ccc2nn1-c1ccc2ncsc2c1 [Example 304] | > 7.00 | 6.00 to 7.00 | > 7.00 | 6.00 to 7.00
5 | CCNc1ccc2nn(-c3ccc4nn(C)cc4c3)c(=O)c(-c3ccc(C)nc3)c2n1 [Example 305] | > 7.00 | ≤ 6.00 | > 7.00 | > 7.00
6 | CCNc1ccc2nn(-c3ccc4nn(C)cc4c3)c(=O)c(-c3ccc(OC)nc3)c2n1 [Example 307] | > 7.00 | ≤ 6.00 | > 7.00 | > 7.00
7 | CCNc1ccc2nn(-c3ccc4nn(C)cc4c3)c(=O)c(-c3ccc(C4CC4)nc3)c2n1 [Example 309] | > 7.00 | ≤ 6.00 | > 7.00 | > 7.00
8 | CCNc1ccc2nn(-c3ccc4nn(C)cc4c3)c(=O)c(-c3ccc(C(F)F)nc3)c2n1 [Example 310] | > 7.00 | ≤ 6.00 | > 7.00 | > 7.00
9 | CCNc1ccc2nn(-c3ccc4nn(C)cc4c3)c(=O)c(-c3ccc(OC(F)F)nc3)c2n1 [Example 313] | > 7.00 | 6.00 to 7.00 | > 7.00 | > 7.00
10 | Cn1cc2cc(-n3nc4ccc(NCC5CC5)nc4c(-c4ccc(C5CC5)nc4)c3=O)ccc2n1 [Example 315] | > 7.00 | ≤ 6.00 | > 7.00 | > 7.00
11 | CCNc1ccc2nn(-c3ccc4nn(C)cc4c3)c(=O)c(-c3ccc(C(F)(F)F)nc3)c2n1 [Example 316] | > 7.00 | ≤ 6.00 | > 7.00 | > 7.00
12 | Cn1cc2cc(-n3nc4ccc(NCC(F)(F)F)nc4c(-c4ccc(C(F)F)nc4)c3=O)ccc2n1 [Example 317] | > 7.00 | ≤ 6.00 | > 7.00 | > 7.00
13 | Cc1ccc(-c2c(=O)n(-c3ccc4nn(C)cc4c3)nc3ccc(NCC(F)F)nc23)cn1 [Example 318] | > 7.00 | ≤ 6.00 | > 7.00 | > 7.00
14 | Cn1cc2cc(-n3nc4ccc(NCC(F)F)nc4c(-c4ccc(C(F)F)nc4)c3=O)ccc2n1 [Example 319] | > 7.00 | ≤ 6.00 | > 7.00 | > 7.00
15 | [2H]C([2H])([2H])n1cc2cc(-n3nc4ccc(NC([2H])([2H])C([2H])([2H])[2H])nc4c(-c4ccc(C(F)F)nc4)c3=O)ccc2n1 [Example 321, 4-(6-(difluoromethyl)pyridin-3-yl)-6-((ethyl-d5)amino)-2-(2-(methyl-d3)-2H-indazol-5-yl)pyrido[3,2-c]pyridazin-3(2H)-one] | > 7.00 | ≤ 6.00 | > 7.00 | > 7.00
16 | [2H]C([2H])([2H])C([2H])([2H])Nc1ccc2nn(-c3ccc4nn(C)cc4c3)c(=O)c(-c3ccc(C)nc3)c2n1 [Example 323] | > 7.00 | > 7.00 | > 7.00 | > 7.00
17 | CCNc1ccc2nn(-c3ccc4nc(C)n(C)c4c3)c(=O)c(-c3ccc(C(F)F)nc3)c2n1 [Example 327] | > 7.00 | ≤ 6.00 | > 7.00 | > 7.00
18 | Cn1cc2cc(-n3nc4ccc(OCC(F)F)nc4c(-c4ccc5[nH]cc(C#N)c5c4)c3=O)ccc2n1 [Example 331, 5-(6-(2,2-difluoroethoxy)-2-(2-methyl-2H-indazol-5-yl)-3-oxo-2,3-dihydropyrido[3,2-c]pyridazin-4-yl)-1H-indole-3-carbonitrile] | > 7.00 | ≤ 6.00 | > 7.00 | > 7.00
